Laboratory results from ChEMBL document CHEMBL1201862, “PubChem BioAssay data set” (2004).
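Compound exposure: 48 hours, 5 concentrations, 96-well plates. At the GI50, growth is halved.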 Active and inactive are the calls of the source. Cut-off read from the data, not from the text of the source: active = GI50 up to about 1.1 µM and inactive = higher.

Columns and labels:
Assay in all cases: DTP human tumour cell line panel, 48 h
786-0 = tested on: 786-0
UO-31 = tested on: UO-31
EKVX = tested on: EKVX
OVCAR-3 = tested on: OVCAR-3
T47D = tested on: T47D
MOLT-4 = tested on: MOLT-4
MDA-MB-435 = tested on: MDA-MB-435
U-251 = tested on: U-251
SK-MEL-28 = tested on: SK-MEL-28
Malme-3M = tested on: Malme-3M
NCI-H23 = tested on: NCI-H23
A498 = tested on: A498
MCF7 = tested on: MCF7
Hs-578T = tested on: Hs-578T
PC-3 = tested on: PC-3
NCI-H522 = tested on: NCI-H522
OVCAR-5 = tested on: OVCAR-5
ACHN = tested on: ACHN
RXF 393 = tested on: RXF 393
SR = tested on: SR

Measured: GI50

CC(=O)N/N=C1\NC(=O)C[C@H]2[C@@H]3CC=C4C[C@@H](OC(C)=O)CC[C@]4(C)[C@H]3CC[C@]12C
inactive: 786-0 16 µM | UO-31 40.6 µM | EKVX 36.1 µM | OVCAR-3 > 100 µM | T47D > 100 µM | MOLT-4 > 100 µM | MDA-MB-435 4.06 µM | U-251 12.8 µM | SK-MEL-28 13.4 µM | Malme-3M 39.1 µM | NCI-H23 49.9 µM | A498 18.7 µM | MCF7 46.9 µM | Hs-578T 17.8 µM | PC-3 29.9 µM | NCI-H522 32.1 µM | OVCAR-5 > 100 µM | ACHN 21.5 µM

COCO[C@@H]1C[C@H]2C(=O)Nc3ccccc3C(=O)N2C1
inactive: 786-0 > 100 µM | UO-31 27 µM | EKVX > 100 µM | T47D 69.2 µM | MDA-MB-435 53.7 µM | U-251 45.7 µM | SK-MEL-28 > 100 µM | Malme-3M 40.3 µM | NCI-H23 51.4 µM | A498 38.5 µM | MCF7 54.1 µM | Hs-578T 58.6 µM | PC-3 43.8 µM | NCI-H522 16.2 µM | OVCAR-5 61.5 µM | ACHN 50.6 µM | RXF 393 20.6 µM

N#CC12C(=O)N3C(=NC(c4ccccc4)NC3c3ccccc3)C1(C#N)C(c1ccccc1)NC1=C2CCCC1 (centres undefined)
inactive: 786-0 > 100 µM | UO-31 > 100 µM | EKVX > 100 µM | OVCAR-3 > 100 µM | T47D > 100 µM | MOLT-4 > 100 µM | MDA-MB-435 > 100 µM | U-251 > 100 µM | SK-MEL-28 > 100 µM | Malme-3M > 100 µM | NCI-H23 > 100 µM | A498 > 100 µM | MCF7 > 100 µM | Hs-578T > 100 µM | PC-3 > 100 µM | NCI-H522 > 100 µM | OVCAR-5 > 100 µM | ACHN > 100 µM | RXF 393 > 100 µM

CCOC(=O)c1ccc(/N=c2\oc3ccc(OC)cc3cc2-c2nc3ccccc3[nH]2)cc1
inactive: 786-0 > 100 µM | UO-31 > 100 µM | EKVX > 100 µM | OVCAR-3 > 100 µM | T47D > 100 µM | SR 59.3 µM | MOLT-4 > 100 µM | MDA-MB-435 30.5 µM | U-251 31.4 µM | SK-MEL-28 > 100 µM | Malme-3M > 100 µM | NCI-H23 10.4 µM | MCF7 36.5 µM | Hs-578T 79.8 µM | PC-3 > 100 µM | NCI-H522 71.6 µM | OVCAR-5 54.3 µM | ACHN > 100 µM | RXF 393 40.6 µM

O=C(/C=C/c1ccc(F)c(F)c1)OCCc1ccccc1
inactive: 786-0 > 100 µM | UO-31 90.4 µM | EKVX > 100 µM | OVCAR-3 > 100 µM | T47D 72.4 µM | SR 90.6 µM | MOLT-4 18 µM | MDA-MB-435 > 100 µM | U-251 > 100 µM | SK-MEL-28 > 100 µM | Malme-3M > 100 µM | NCI-H23 72.9 µM | MCF7 81.8 µM | Hs-578T > 100 µM | PC-3 > 100 µM | NCI-H522 38.6 µM | OVCAR-5 > 100 µM | ACHN > 100 µM

N#Cc1cc(-c2nc3ccc(F)cc3s2)ccc1N
inactive: 786-0 > 100 µM | UO-31 > 100 µM | EKVX 31.8 µM | OVCAR-3 > 100 µM | T47D > 100 µM | MOLT-4 > 100 µM | MDA-MB-435 17.7 µM | U-251 63 µM | Malme-3M 35.3 µM | NCI-H23 > 100 µM | A498 > 100 µM | MCF7 18 µM | Hs-578T > 100 µM | PC-3 > 100 µM | NCI-H522 > 100 µM | OVCAR-5 > 100 µM | ACHN > 100 µM | RXF 393 > 100 µM

CC(=O)OCC1OC(OC(C)=O)C(Nc2ncc(-c3ccc(C)cc3)s2)C(OC(C)=O)C1OC(C)=O (centres undefined)
inactive: 786-0 16.6 µM | UO-31 14.7 µM | EKVX 14.3 µM | OVCAR-3 19.3 µM | T47D 15.2 µM | SR 26.4 µM | MOLT-4 11 µM | MDA-MB-435 15.8 µM | U-251 17 µM | SK-MEL-28 17.4 µM | Malme-3M 21.2 µM | NCI-H23 12 µM | MCF7 20.3 µM | Hs-578T 22.5 µM | PC-3 15.9 µM | NCI-H522 15.7 µM | OVCAR-5 43.1 µM | ACHN 14.6 µM | RXF 393 16.1 µM

CCOC(=O)c1cc(=O)c2cccc3c2n1CCS3
inactive: 786-0 > 100 µM | UO-31 77.8 µM | EKVX > 100 µM | OVCAR-3 > 100 µM | T47D > 100 µM | MOLT-4 > 100 µM | MDA-MB-435 > 100 µM | U-251 > 100 µM | SK-MEL-28 > 100 µM | NCI-H23 > 100 µM | A498 83.8 µM | MCF7 > 100 µM | Hs-578T > 100 µM | PC-3 > 100 µM | NCI-H522 91.4 µM | OVCAR-5 > 100 µM | ACHN > 100 µM

C=C(Br)CNC(=O)Nc1ccc(Cl)c(Cl)c1
inactive: 786-0 16 µM | UO-31 11.4 µM | EKVX 28.1 µM | OVCAR-3 13.4 µM | T47D 17.9 µM | SR 30.9 µM | MOLT-4 26.2 µM | MDA-MB-435 20.3 µM | U-251 22.6 µM | SK-MEL-28 28.1 µM | Malme-3M 20.1 µM | NCI-H23 15.6 µM | A498 9.12 µM | Hs-578T 22.7 µM | PC-3 11.2 µM | NCI-H522 18.6 µM | OVCAR-5 33.1 µM | ACHN 17.5 µM | RXF 393 18.5 µM

O=C(O)CN1CCN2CCCCCCCCN(CC1)CCN(CC(=O)O)CC2
inactive: 786-0 > 100 µM | UO-31 > 100 µM | EKVX > 100 µM | OVCAR-3 > 100 µM | T47D > 100 µM | MOLT-4 > 100 µM | MDA-MB-435 > 100 µM | U-251 > 100 µM | SK-MEL-28 > 100 µM | Malme-3M > 100 µM | A498 > 100 µM | MCF7 > 100 µM | Hs-578T > 100 µM | PC-3 > 100 µM | NCI-H522 64.6 µM | OVCAR-5 > 100 µM | ACHN > 100 µM

Cc1nnc2n1N=C(c1cc(F)c(Cl)cc1Cl)/C(=C/c1ccc3c(c1)OCO3)S2
inactive: 786-0 47.4 µM | UO-31 > 100 µM | EKVX 23.1 µM | OVCAR-3 34.4 µM | T47D 70.6 µM | MOLT-4 38.1 µM | MDA-MB-435 45.9 µM | U-251 56.6 µM | SK-MEL-28 > 100 µM | Malme-3M > 100 µM | NCI-H23 90.8 µM | A498 45.5 µM | MCF7 35.5 µM | Hs-578T 71.6 µM | PC-3 63.1 µM | NCI-H522 20.7 µM | OVCAR-5 32.1 µM | ACHN 63.5 µM | RXF 393 51.3 µM

COc1cc2c(c(OC)c1OC)C(=O)[C@@H](O)[C@H]2NC(N)=O
inactive: 786-0 > 100 µM | UO-31 > 100 µM | EKVX > 100 µM | OVCAR-3 > 100 µM | T47D 31.6 µM | MOLT-4 > 100 µM | MDA-MB-435 > 100 µM | U-251 > 100 µM | SK-MEL-28 > 100 µM | Malme-3M > 100 µM | NCI-H23 > 100 µM | MCF7 > 100 µM | Hs-578T > 100 µM | PC-3 > 100 µM | NCI-H522 > 100 µM | OVCAR-5 > 100 µM | ACHN > 100 µM | RXF 393 > 100 µM

COc1ccc(C2SC(=N)Nc3c2c(C)nn3C(=O)c2ccc(Cl)cc2)cc1OC (centres undefined)
inactive: 786-0 > 10 µM | EKVX > 10 µM | OVCAR-3 > 10 µM | T47D > 10 µM | SR > 10 µM | MOLT-4 > 10 µM | MDA-MB-435 > 10 µM | U-251 > 10 µM | SK-MEL-28 > 10 µM | Malme-3M > 10 µM | NCI-H23 > 10 µM | MCF7 > 10 µM | Hs-578T > 10 µM | PC-3 > 10 µM | NCI-H522 > 10 µM | OVCAR-5 > 10 µM | ACHN > 10 µM | RXF 393 > 10 µM

Cc1ccc(-[n+]2cc([O-])on2)cc1
inactive: 786-0 > 100 µM | UO-31 > 100 µM | EKVX > 100 µM | OVCAR-3 > 100 µM | T47D > 100 µM | SR > 100 µM | MOLT-4 > 100 µM | MDA-MB-435 > 100 µM | U-251 > 100 µM | SK-MEL-28 > 100 µM | Malme-3M > 100 µM | NCI-H23 > 100 µM | A498 65.8 µM | Hs-578T > 100 µM | PC-3 > 100 µM | NCI-H522 > 100 µM | OVCAR-5 > 100 µM | ACHN > 100 µM | RXF 393 > 100 µM

CN(C)c1cc[n+](-c2nc([N-]C(=O)C(F)(F)F)nc3c2ncn3C2CC(O)C(CO)O2)cc1 (centres undefined)
inactive: 786-0 > 100 µM | UO-31 > 100 µM | EKVX > 100 µM | OVCAR-3 > 100 µM | T47D > 100 µM | MOLT-4 > 100 µM | MDA-MB-435 > 100 µM | U-251 > 100 µM | SK-MEL-28 > 100 µM | Malme-3M > 100 µM | NCI-H23 > 100 µM | A498 > 100 µM | MCF7 > 100 µM | Hs-578T > 100 µM | PC-3 > 100 µM | NCI-H522 > 100 µM | OVCAR-5 > 100 µM | ACHN > 100 µM | RXF 393 > 100 µM
